Data taken from patent publication US8785692B2, “Substituted phenylamidines and the use thereof as fungicides” (priority 2007, dated 2014).
Like-named read-outs stand apart in the source and are kept apart here.

What was measured:
Sphaerotheca fuliginea = experiment: Sphaerotheca test (cucumber) / protective; format: in vivo; conditions: Podosphaera fuliginea, 168 h; cucumber, protective, 500 ppm active compound, evaluation 7 days after inoculation; read-out: efficacy
Procedure: Sphaerotheca Test (Cucumber)/Protective
Solvent: 49 parts by weight of N,N-dimethylformamide
Emulsifier: 1 part by weight of alkylaryl polyglycol ether
To produce a suitable preparation of active compound, 1 part by weight of active compound is mixed with the stated amounts of solvent and emulsifier, and the concentrate is diluted with water to the desired concentration.
To test for protective activity, young cucumber plants are sprayed with the active compound preparation at the stated application rate. 1 day after the treatment, the plants are inoculated with a spore suspension of Sphaerotheca fuliginea. The plants are then placed in a greenhouse at 70% relative atmospheric humidity and a temperature of 23° C.
Evaluation is carried out 7 days after the inoculation. 0% means an efficacy which corresponds to that of the control, whereas an efficacy of 100% means that no infection is observed.

[1] = logP (neutral / acidic, pH 2.3)

SMILES | pest or weed control at 500 ppm (Sphaerotheca fuliginea) | logP ([1]; pH 2.3) | logP [1]
CCN(C)C=Nc1cc(C)c(/C=N/OCc2ccccc2)cc1C [Compound 3, N′-(4-{(E)-[(benzyloxy)imino]methyl}-2,5-di-methylphenyl)-N-ethyl-N-methylimidoformamide] | ≥ 70% | 2.02 | 
CCN(C)C=Nc1cc(C)c(/C(C)=N/OCc2c(C)noc2C)cc1C [Compound 36, N′-(4-{(1E)-N-[(3,5-dimethylisoxazol-4-yl)methoxy]ethanimidoyl}-2,5-dimethylphenyl)-N-ethyl-N-methylimidoformamide] | ≥ 70% | 1.68 | 3.63
CCN(C)C=Nc1cc(C)c(/C=N/OC(C)C)cc1C [Compound 40, N-ethyl-N′-{4-[(E)-(isopropoxyimino)methyl]-2,5-dimethylphenyl}-N-methylimidoformamide] | ≥ 70% | 1.76 | 4.41
CCN(C)C=Nc1cc(C)c(/C(C)=N/OCc2ccccc2)cc1C [Compound 31, N′-(4-{(1E)-N—[benzyloxy]-ethanimidoyl}-2,5-dimethylphenyl)-N-ethyl-N-methylimidoformamide] | ≥ 70% | 2.07 | 4.65
CCN(C)C=Nc1cc(C)c(/C(C)=N/OCCc2ccc(Cl)cc2)cc1C [Compound 25, N′-(4-{(1E)-N-[2-(4-chloro-phenyl)ethoxy]ethanimidoyl}-2,5-dimethylphenyl)-N-ethyl-N-methylimidoformamide] | ≥ 70% | 2.56 | 5.55
CCN(C)C=Nc1cc(C)c(/C(C)=N/OC(C2CC2)C2CC2)cc1C [Compound 20, N′-{4-[(1E)-N-(dicyclopropylmethoxy)ethanimidoyl]-2,5-dimethylphenyl}-N-ethyl-N-methylimidoformamide] | ≥ 70% | 2.38 | 5.33
